According to ChEMBL document CHEMBL1201862, “PubChem BioAssay data set” (2004):
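How tested: cells in 96-well plates exposed to compound for 48 hours at five concentrations. Abbreviation: GI50, concentration required for 50% inhibition of growth.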 Activity calls are given as the source filed them. Rule as the data show it: active = GI50 up to about 1.1 µM and inactive = higher.

Key:
Experiment in all cases: DTP human tumour cell line panel, 48 h
786-0 = test system: 786-0
A498 = test system: A498
A549 = test system: A549
ACHN = test system: ACHN
BT-549 = test system: BT-549
CAKI-1 = test system: CAKI-1
CCRF-CEM = test system: CCRF-CEM
COLO 205 = test system: COLO 205
DU-145 = test system: DU-145
EKVX = test system: EKVX
HCC 2998 = test system: HCC 2998
HCT-116 = test system: HCT-116
HCT-15 = test system: HCT-15
HL-60 = test system: HL-60
HOP-62 = test system: HOP-62
HOP-92 = test system: HOP-92
HT-29 = test system: HT-29
Hs-578T = test system: Hs-578T
IGROV-1 = test system: IGROV-1
K562 = test system: K562
KM12 = test system: KM12
LOX IMVI = test system: LOX IMVI
M14 = test system: M14
MCF7 = test system: MCF7
MDA-MB-231 = test system: MDA-MB-231
MDA-MB-435 = test system: MDA-MB-435
MDA-N = test system: MDA-N
MOLT-4 = test system: MOLT-4
Malme-3M = test system: Malme-3M
NCI-H226 = test system: NCI-H226
NCI-H23 = test system: NCI-H23
NCI-H460 = test system: NCI-H460
NCI-H522 = test system: NCI-H522
NCI/ADR-RES = test system: NCI/ADR-RES
OVCAR-3 = test system: OVCAR-3
OVCAR-4 = test system: OVCAR-4
OVCAR-5 = test system: OVCAR-5
OVCAR-8 = test system: OVCAR-8
PC-3 = test system: PC-3
RPMI-8226 = test system: RPMI-8226
RXF 393 = test system: RXF 393
SF-268 = test system: SF-268
SF-295 = test system: SF-295
SF-539 = test system: SF-539
SK-MEL-28 = test system: SK-MEL-28
SK-MEL-2 = test system: SK-MEL-2
SK-MEL-5 = test system: SK-MEL-5
SK-OV-3 = test system: SK-OV-3
SN12C = test system: SN12C
SNB-19 = test system: SNB-19
SR = test system: SR
SW-620 = test system: SW-620
T47D = test system: T47D
TK-10 = test system: TK-10
U-251 = test system: U-251
UACC-257 = test system: UACC-257
UO-31 = test system: UO-31

CNC(=O)Nc1nc2cc([N+](=O)[O-])ccc2[nH]1
GI50 (786-0): > 100 µM (inactive) | GI50 (A498): > 100 µM (inactive) | GI50 (A549): > 100 µM (inactive) | GI50 (ACHN): > 100 µM (inactive) | GI50 (BT-549): 49.9 µM (inactive) | GI50 (CAKI-1): 61.4 µM (inactive) | GI50 (CCRF-CEM): 67.8 µM (inactive) | GI50 (COLO 205): > 100 µM (inactive) | GI50 (DU-145): > 100 µM (inactive) | GI50 (EKVX): > 100 µM (inactive) | GI50 (HCC 2998): > 100 µM (inactive) | GI50 (HCT-116): > 100 µM (inactive) | GI50 (HCT-15): > 100 µM | GI50 (HL-60): 49 µM (inactive) | GI50 (HOP-62): > 100 µM (inactive) | GI50 (HOP-92): 86.1 µM (inactive) | GI50 (HT-29): > 100 µM (inactive) | GI50 (Hs-578T): > 100 µM (inactive) | GI50 (IGROV-1): 64.6 µM (inactive) | GI50 (K562): > 100 µM (inactive) | GI50 (KM12): > 100 µM (inactive) | GI50 (LOX IMVI): > 100 µM (inactive) | GI50 (M14): > 100 µM (inactive) | GI50 (MCF7): > 100 µM (inactive) | GI50 (MDA-MB-231): > 100 µM (inactive) | GI50 (MDA-MB-435): > 100 µM (inactive) | GI50 (MDA-N): > 100 µM (inactive) | GI50 (MOLT-4): > 100 µM (inactive) | GI50 (Malme-3M): > 100 µM (inactive) | GI50 (NCI-H226): > 100 µM (inactive) | GI50 (NCI-H23): > 100 µM (inactive) | GI50 (NCI-H460): 7.55 µM (inactive) | GI50 (NCI-H522): 44.1 µM (inactive) | GI50 (NCI/ADR-RES): > 100 µM (inactive) | GI50 (OVCAR-3): > 100 µM (inactive) | GI50 (OVCAR-4): > 100 µM (inactive) | GI50 (OVCAR-5): > 100 µM (inactive) | GI50 (OVCAR-8): > 100 µM (inactive) | GI50 (PC-3): > 100 µM (inactive) | GI50 (RPMI-8226): > 100 µM (inactive) | GI50 (RXF 393): > 100 µM (inactive) | GI50 (SF-268): > 100 µM (inactive) | GI50 (SF-295): > 100 µM (inactive) | GI50 (SF-539): > 100 µM (inactive) | GI50 (SK-MEL-28): > 100 µM (inactive) | GI50 (SK-MEL-2): 21.5 µM (inactive) | GI50 (SK-MEL-5): > 100 µM (inactive) | GI50 (SK-OV-3): > 100 µM (inactive) | GI50 (SN12C): > 100 µM (inactive) | GI50 (SNB-19): > 100 µM (inactive) | GI50 (SR): 47.1 µM (inactive) | GI50 (SW-620): > 100 µM (inactive) | GI50 (T47D): > 100 µM (inactive) | GI50 (TK-10): > 100 µM (inactive) | GI50 (U-251): > 100 µM (inactive) | GI50 (UACC-257): > 100 µM (inactive) | GI50 (UO-31): > 100 µM (inactive)
